The source of these data is patent US20080254152A1, “Methods for Reducing the Effects of Stress on Skin Condition” (priority 2003, published 2008).

Each structure is given as a SMILES string.

Assay [1] concerns IL-6 expression in neonatal-derived human dermal fibroblasts. Description: IL-6 in neonatal-derived human dermal fibroblasts after chronic dexamethasone and PMA. The settings on record: GC-treated neonatal fibroblasts after PMA; T6 and T24; data not shown. The format is cell-based. How it is done:
The IL-6 protein concentration of each tissue culture supernatant was assayed using the QuantiGlo Q6000 Human IL-6 assay (R&D Systems) according to the manufacturer's instructions.
Six IL-6 standards were prepared in calibrator diluent at concentrations ranging from 0 to 3000 pg/ml. 50 μl of assay diluent and 150 μl of tissue culture supernatant or standard was added to duplicate wells. The plate was incubated at room temperature for 2 hours on a horizontal orbital plate shaker before being washed four times with wash buffer. 200 μl of IL-6 conjugate was added to each well and the plate incubated at room temperature for 3 hours on a horizontal orbital plate shaker (˜500 rpm). The plate was washed as before. […] The relative light unit (RLU) of each well was determined using a luminometer set with 1 minute lag time, 1 second/well read time, summation mode and automatic gain on.
A standard curve was plotted of mean RLU versus IL-6 concentration and the line of best fit calculated by regression analysis. […]
In this study, to understand better the effect of chronic stress on dermal matrix remodelling in the skin, we have therefore measured changes in markers of dermal matrix degradation (MMP-1) and dermal matrix synthesis (Procollagen I) in chronically glucocorticoid-treated primary human dermal fibroblasts, following acute stress with PMA. […]

The test system of assay [2] is IL-6 expression by Human Umbilical Vein Endothelial Cells. Kind of assay: IL-6 ELISA of HUVEC tissue culture supernatant. The format is cell-based. The settings on record: without PMA. How it is done: (§1) An in vitro model has been developed to investigate the impact of chronic stress on the inflammatory status of endothelial cells. • a. Cells are grown in 6-well (9.5 cm^2) plates. • b. […] Tissue culture supernatant and cell pellets are harvested at timepoint T0. • d. The cells are oxidatively stressed with 1 μM Phorbol Myristate Acetate (PMA). • e. Tissue culture supernatant and cell pellets were harvested at 6, 24 and 48 hours (T6, T24 and T48, respectively) post-PMA treatment. • f. All tissue culture supernatant was assayed for Lactate Dehydrogenase (LDH), as a measure of cytotoxicity, and Interleukin-6 synthesis. • g. All cells were counted (Beckman Coulter Counter) and pelleted and cell lysate assayed for ICAM-1 expression (Intra Cellular Adhesion Molecule 1).
A general note: An ELISA detects its analyte on a solid surface through an enzyme-linked reagent.

For assay [3], the system named is ICAM-1 expression in HUVECs. Description: ICAM-1 expression in HUVECs pre-treated 5 days with dexamethasone, then oxidatively stressed with PMA (ELISA). In kind it is cell-based, Human. The note with it: chronic 1 μM glucocorticoid 5 days, then 1 μM PMA; HUVEC; FIG. 1. The method, then: as §1
HUVEC cells (Human umbilical vein endothelial cells, TCS Biologicals) were cultured and passaged in EGM-2 (Endothelial growth medium, Biowhittaker) supplemented with heparin, VEGF (vascular endothelial growth factor), gentamicin sulphate, ascorbic acid, HEGF (Human endothelial growth factor), hydrocortisone, HFGF-B (Human fibroblast growth factor B), R3-IGF-1 (long R insulin-like growth factor 1) and FBS (foetal bovine serum).
Cells were routinely plated out in 6-well tissue culture dishes, at a seeding density of ˜5000 cells/cm^2 in 2 ml complete medium/well, 48 hours before starting the experiment, and incubated at 37° C. in 5% CO2.
Pre-treatment and test solutions were prepared in EGM-2 containing all supplements except hydrocortisone.
Following this, the cells were oxidatively stressed for 24 hours with 1 μM PMA (Sigma P8139).
Receptor antagonists were added to the cells during the pre-treatment period. These included the Glucocorticoid Receptor Antagonist; 2 μM Mifepristone (Sigma M8046) and two CRH receptor antagonists; 200 nM Astressin (Sigma A4933) and 200 nM α-helical CRF peptide antagonist (Sigma C2917).
Any change in cell morphology was noted before the cells were harvested. Both the tissue culture supernatant and the endothelial cells were harvested after the five-day pre-treatment period (T0), at 6 hours and 24 hours after addition of PMA (T6 and T24) and at 24 hours after removal of the PMA (T48). All tissue culture supernatants were stored at −20° C.
All cell pellets were lysed on ice for 30 minutes in 1 ml cell lysis buffer per 2.5×10^6 cells. The lysis buffer contained 1% NP-40, 0.1% sodium deoxycholate, 0.1% SDS, 6 mM sodium chloride and 0.05M Tris at pH 7.6. Protease inhibitor cocktail ([…]; Sigma P8340) was added prior to use at a level of 10 μl per ml of lysis buffer. The partially lysed cell pellets were completely homogenised with a pellet pestle and unwanted cell debris removed by centrifugation for 20 minutes at 20,000 g at 4° C. The clarified cell lysate was frozen at −80° C. until needed.
The total protein concentration of each cell lysate was measured using the Pierce BCA protein assay kit. A set of eight standard solutions ranging from 0 to 1200 μg/ml protein was prepared from the supplied 2 mg/ml BSA stock solution. 10 μl of standard or cell lysate was added to duplicate wells of a flat-bottomed, 96-well microtitre plate. The reagent solution was prepared according to the kit instructions from 50 parts reagent A and 1 part reagent B. 200 μl of the final reagent was added to each well of the microtitre plate. The plate was mixed, covered and incubated at 37° C. for 30 minutes and absorbance read at 562 nm.
ICAM-1 protein in each cell lysate was estimated using the Human sICAM-1 DuoSet ELISA kit (R&D Systems DY720) according to the manufacturer's instructions.
The capture antibody was diluted to a final concentration of 4 μg/ml in PBS and 100 μl was used to coat each well of a 96-well microtitre plate overnight at room temperature. The plate was then washed three times with wash buffer (0.05% Tween 20 in PBS).

Consider `C[C@@H]1C[C@H]2[C@@H]3CCC4=CC(=O)C=C[C@]4(C)[C@@]3(F)[C@@H](O)C[C@]2(C)[C@@]1(O)C(=O)CO` [Dexamethasone], for which the “Reduction in Interleukin-6 synthesis vs vehicle treated cells” value in assay [1] was roughly 80%. For the same compound, the “IL-6 secretion with glucocorticoid alone” value in assay [2] was “did not cause increased secretion of IL-6”. For the same compound, in assay [3], the “Induction of ICAM-1 synthesis after PMA, glucocorticoid pre-treated vs not pre-treated cells” value was “significantly greater”.
